In series [1] the target is T1, Phenylethanolamine N-methyltransferase (Bos taurus, UniProt P10938).
T1 sequence (P10938 whole entry): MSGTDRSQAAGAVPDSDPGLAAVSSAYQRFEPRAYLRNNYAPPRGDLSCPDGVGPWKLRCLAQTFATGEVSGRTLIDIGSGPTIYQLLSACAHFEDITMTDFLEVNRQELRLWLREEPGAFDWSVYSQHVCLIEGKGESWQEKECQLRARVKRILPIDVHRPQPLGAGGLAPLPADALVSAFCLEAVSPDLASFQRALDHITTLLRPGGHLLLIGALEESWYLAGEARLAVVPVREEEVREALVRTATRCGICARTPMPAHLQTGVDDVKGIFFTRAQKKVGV
Description: Inhibitory potency against bovine phenylethanolamine N-Methyltransferase (PNMT).

Series [2] concerns the target T2, Alpha-2A adrenergic receptor (Rattus norvegicus, UniProt P22909).
T2 sequence (P22909 whole entry): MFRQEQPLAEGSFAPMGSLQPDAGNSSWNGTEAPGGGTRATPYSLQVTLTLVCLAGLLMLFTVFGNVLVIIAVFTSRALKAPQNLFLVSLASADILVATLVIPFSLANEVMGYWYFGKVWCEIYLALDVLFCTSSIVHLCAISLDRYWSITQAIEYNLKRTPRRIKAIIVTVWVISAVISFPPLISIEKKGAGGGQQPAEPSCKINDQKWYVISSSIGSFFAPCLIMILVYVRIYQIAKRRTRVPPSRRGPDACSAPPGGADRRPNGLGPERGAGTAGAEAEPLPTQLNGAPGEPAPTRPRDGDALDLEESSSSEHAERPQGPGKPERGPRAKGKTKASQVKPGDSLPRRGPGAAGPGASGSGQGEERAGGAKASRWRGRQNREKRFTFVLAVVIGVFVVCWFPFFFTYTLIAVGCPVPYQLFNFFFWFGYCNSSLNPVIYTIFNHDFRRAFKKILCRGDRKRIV
The series is described as follows: Inhibitory potency against alpha-2-adrenoceptor.

A short description of series [3]: Selectivity expressed as the ratio of Ki of alpha-2-adrenoceptor to that of PNMT.
Substrate in series [4]: NC[C@@H](O)c1ccccc1
The series is described as follows: (§1) Vmax was determined against bovine phenylethanolamine N-Methyltransferase (PNMT).

Substrate in series [5]: NCC1CNCc2ccccc21
Described as §1.

Substrate in series [6]: NCC1CNCc2ccccc21
The series is described as follows: Michaelis-Menten constant was determined against bovine phenylethanolamine N-Methyltransferase (PNMT).

A word on the Ki: it is a measure of affinity in units of concentration, obtained from inhibition or displacement. A word on the Km: it is the substrate concentration at which the rate is half of its maximum.

As to `OCC1CNCc2ccccc21` (stereo not drawn), the inhibition constant Ki in series [1] came to 170000 nM.

As to `Ic1ccc2c(c1)CNCC2`, in series [2], the Ki turned out to be 220 nM.

For `Clc1ccc2c(c1Cl)CNCC2`, the Selectivity in series [3] was […]. This molecule also came in with a Ki in series [2] of […].

Turning to `Clc1ccc2c(c1Cl)CNCCC2`, in series [2], the Ki was 4500 nM.

B1: Phenylethanolamine N-methyltransferase (Bos taurus), P10938 (protein)
chain: MSGTDRSQAAGAVPDSDPGLAAVSSAYQRFEPRAYLRNNYAPPRGDLSCPDGVGPWKLRCLAQTFATGEVSGRTLIDIGSGPTIYQLLSACAHFEDITMTDFLEVNRQELRLWLREEPGAFDWSVYSQHVCLIEGKGESWQEKECQLRARVKRILPIDVHRPQPLGAGGLAPLPADALVSAFCLEAVSPDLASFQRALDHITTLLRPGGHLLLIGALEESWYLAGEARLAVVPVREEEVREALVRTATRCGICARTPMPAHLQTGVDDVKGIFFTRAQKKVGV
Take B1: the values for the Vmax (nM min-1 mg-1) in series [4] and in series [5] were 2.2 and 3.4, respectively. Further, the Michaelis constant (Km) in series [6] came to 47 µM.

These data come from ChEMBL document CHEMBL1148298, “Molecular recognition of sub-micromolar inhibitors by the epinephrine-synthesizing enzyme phenylethanolamine N-methyltransferase” (J Med Chem, 2004).
